Experimental data: US11547681B2, “N-acylethanolamide derivatives and uses thereof” (ELIEM THERAPEUTICS, INC., priority 2016, dated 2023)
Each block holds one compound with its values, some of them ahead of it.

Key:
in vitro = conditions: male; for Measured concentration of analyte PEA, 0 min / Measured concentration of analyte PEA, 10 min / Measured concentration of analyte PEA, 20 min / Measured concentration of analyte PEA, 30 min / Measured concentration of analyte PEA, 60 min / % Remaining of Initial, 0 min / % Remaining of Initial, 10 min / % Remaining of Initial, 20 min / % Remaining of Initial, 30 min / % Remaining of Initial, 60 min / Measured concentration of PEA (analyte) / % Remaining of Initial: 1 μM; for % Remaining of Initial, 0 min / % Remaining of Initial, 10 min / % Remaining of Initial, 20 min / % Remaining of Initial, 30 min / % Remaining of Initial, 60 min / microsomal CLint at 1 μM / half-life at 1 μM / % Remaining of Initial: microsomes
Protocol: (§1) Reaction mixture, minus cofactors, was prepared as described below. Test article was added into the reaction mixture at a final concentration of 1 μM. […] An aliquot of the reaction mixture (without cofactor) was equilibrated in a shaking water bath at 37° C. for 3 minutes. The reaction was initiated by the addition of cofactor, and the mixture was incubated in a shaking water bath at 37° C. Aliquots (100 μL) were withdrawn at 0, 10, 20, 30, and 60 minutes. Test article samples were immediately combined with 300 μL of ice-cold acetonitrile containing 1% formic acid. Control samples were immediately combined with 400 μL of ice-cold 50/50 acetonitrile (ACN)/dH2O containing 0.1% formic acid and internal standard to terminate the reaction. Samples were then mixed and centrifuged to precipitate proteins. Calibration standards were prepared in matched matrix. Samples and standards were assayed by LC-MS/MS using electrospray ionization for both dosed prodrug and expected drug (PEA). Analytical conditions are outlined in Appendix 8-1. Test article concentration at each time point was compared to test article concentration at time 0 to determine the percent remaining at each time point. Half-lives were calculated using GraphPad software, fitting to a single-phase exponential decay equation.
Reaction mixture, minus cofactors, was prepared as described below. Test article was added into the reaction mixture at a final concentration of 1 μM. […] An aliquot of the reaction mixture (without cofactor) was equilibrated in a shaking water bath at 37° C. for 5 minutes. Reaction was initiated by the addition of cofactor, and the mixture was incubated in a shaking water bath at 37° C. Aliquots (100 μL) were withdrawn at 0, 10, 20, 30, and 60 minutes. Test article samples were immediately combined with 300 μL of ice-cold acetonitrile containing 1% formic acid. Control samples were immediately combined with 400 μL of ice-cold 50/50 acetonitrile (ACN)/dH2O containing 0.1% formic acid and internal standard to terminate the reaction. Samples were then mixed and centrifuged to precipitate proteins. Calibration standards were prepared in matched matrix. Samples and standards were assayed by LC-MS/MS using electrospray ionization for both the dosed prodrug and the expected drug (PEA). Analytical conditions are outlined in Appendix 10-1. Test article concentration at each time point was compared to the test article concentration at time 0 to determine the percent remaining at each time point. Half-lives were calculated using GraphPad software, fitting to a single-phase exponential decay equation.
as §1, with “minutes. Reaction” for “minutes. The reaction”, “300 μL,” for “300 μL”, “Appendix 13-1.” for “Appendix 8-1.”
Reaction mixture, minus cofactors, was prepared as described below.

[1] = male, Sprague-Dawley, rat, in vivo
[2] = Summary of half life data (Table A), matrix not stated; assay type: in vitro ADME
[3] = Simulated intestinal fluid stability, SIF containing pancreatin; assay type: in vitro ADME; conditions: for % Remaining of Initial (n = 1): 1 μM (Example 14); for Measured Concentration of Drug: test article dosed at 1 μM (Example 14)
Protocol: (§2) Studies were carried out in simulated intestinal fluid containing pancreatin. Simulated intestinal fluid was prepared by dissolving 6.8 g of monobasic potassium phosphate in 1.0 L of water. Pancreatin was then added to the solution and the pH was adjusted to 6.8. A DMSO stock was first prepared for the test articles. Aliquots of the DMSO solution were dosed into 300 μL of matrix, which had been pre-warmed to 37° C., at a final test article concentration of 1 μM. An individual tube was dosed for each time point. At each time point (0, 15, 30, 60, and 120 minutes), 900 μL of ice-cold acetonitrile containing 1.0% formic acid was added to an individual tube. Starting time for each tube was staggered such that all timepoints would finish at the same time. After the conclusion of the experiment, tubes were mixed and then centrifuged at 3,000 rpm for 10 minutes. Calibration standards were prepared in matched matrix. […] Analytical conditions are outlined in Appendix 11-1.
as §2, with “prepared for test articles.” for “prepared for the test articles.”, “Aliquots of DMSO solution” for “Aliquots of the DMSO solution”, “individual tube. The starting time for” for “individual tube. Starting time for”, “that all time points would finish” for “that all timepoints would finish”, “in Appendix 14-1.” for “in Appendix 11-1.”

- Measured concentration of analyte PEA, 0 min (in vitro; Beagle, dog, 0 min): 0.025 µM
- Measured concentration of analyte PEA, 10 min (in vitro; Beagle, dog, 10 min): 0.081 µM
- Measured concentration of analyte PEA, 20 min (in vitro; Beagle, dog, 20 min): 0.090 µM
- Measured concentration of analyte PEA, 30 min (in vitro; Beagle, dog, 30 min): 0.087 µM
- Measured concentration of analyte PEA, 60 min (in vitro; Beagle, dog, 60 min): 0.063 µM
- % Remaining of Initial, 0 min (in vitro; Beagle, dog, 0 h): 100%
- % Remaining of Initial, 10 min (in vitro; Beagle, dog, 10 min): 84%
- % Remaining of Initial, 20 min (in vitro; Beagle, dog, 20 min): 75%
- % Remaining of Initial, 30 min (in vitro; Beagle, dog, 0.5 h): 75%
- % Remaining of Initial, 60 min (in vitro; Beagle, dog, 1 h): 67%
- microsomal CLint at 1 μM (in vitro; Beagle, dog): < 23.1 µL/min/mg
- microsomal CLint at 1 μM (in vitro; Beagle, dog, calculated value in parentheses): 13.3 µL/min/mg
- half-life at 1 μM (in vitro; Beagle, dog, Calculated half-life (in parentheses)): 104 min
- half-life at 1 μM (in vitro; Beagle, dog, Half-life): > 60 min
- Measured concentration of analyte PEA, 0 min (in vitro; CD-1, mouse, 0 min): 0.048 µM
- Measured concentration of analyte PEA, 10 min (in vitro; CD-1, mouse, 10 min): 0.080 µM
- Measured concentration of analyte PEA, 20 min (in vitro; CD-1, mouse, 20 min): 0.052 µM
- Measured concentration of analyte PEA, 30 min (in vitro; CD-1, mouse, 30 min): 0.048 µM
- Measured concentration of analyte PEA, 60 min (in vitro; CD-1, mouse, 60 min): 0.024 µM
- % Remaining of Initial, 0 min (in vitro; CD-1, mouse, 0 h): 100%
- % Remaining of Initial, 10 min (in vitro; CD-1, mouse, 10 min): 72%
- % Remaining of Initial, 20 min (in vitro; CD-1, mouse, 20 min): 57%
- % Remaining of Initial, 30 min (in vitro; CD-1, mouse, 0.5 h): 56%
- % Remaining of Initial, 60 min (in vitro; CD-1, mouse, 1 h): 55%
- microsomal CLint at 1 μM (in vitro; CD-1, mouse): 23.6 µL/min/mg
- half-life at 1 μM (in vitro; CD-1, mouse, Half-life): 59 min
- PEA plasma concentration, 0 (pre-dose) [1]: 3.66 ng/mL
SMILES: CC/C=C\C/C=C\C/C=C\C/C=C\C/C=C\CCCC(=O)OCCNC(=O)CCCCCCCCCCCCCCC [Compound I-5]

- half-life [2]: 6.2 min
- % Remaining of Initial (n = 1) ([3]; 0 min): 100%
- Measured Concentration of Drug ([3]; 0 min): 0.94 µM
- % Remaining of Initial (n = 1) ([3]; 15 min): 17%
- Measured Concentration of Drug ([3]; 15 min): 0.16 µM
- % Remaining of Initial (n = 1) ([3]; 30 min): 6.8%
- Measured Concentration of Drug ([3]; 30 min): 0.064 µM
- % Remaining of Initial (n = 1) ([3]; 60 min): <1.3%
- Measured Concentration of Drug ([3]; 60 min): 0 µM
- % Remaining of Initial (n = 1) ([3]; 120 min): <1.3%
- Measured Concentration of Drug ([3]; 120 min): 0 µM
- half-life at 1 μM ([3]; simulated intestinal fluid with pancreatin, pH 6.8, 1 μM (Example 14)): 6.2 min
- Measured concentration of PEA (analyte) (in vitro; Beagle, dog, 0 min): 0.33 µM
- Measured concentration of PEA (analyte) (in vitro; Beagle, dog, 10 min): 0.54 µM
- Measured concentration of PEA (analyte) (in vitro; Beagle, dog, 20 min): 0.46 µM
- Measured concentration of PEA (analyte) (in vitro; Beagle, dog, 30 min): 0.44 µM
- Measured concentration of PEA (analyte) (in vitro; Beagle, dog, 60 min): 0.20 µM
- % Remaining of Initial (in vitro; Beagle, dog, 0 h): 100%
- % Remaining of Initial (in vitro; Beagle, dog, 10 min): <1.0%
- % Remaining of Initial (in vitro; Beagle, dog, 20 min): <1.0%
- % Remaining of Initial (in vitro; Beagle, dog, 0.5 h): <1.0%
- % Remaining of Initial (in vitro; Beagle, dog, 1 h): <1.0%
- microsomal CLint at 1 μM (in vitro; Beagle, dog): > 1380 µL/min/mg
- half-life at 1 μM (in vitro; Beagle, dog, Half-life): < 1 min
- Measured concentration of PEA (analyte) (in vitro; CD-1, mouse, 0 min): 0.45 µM
- Measured concentration of PEA (analyte) (in vitro; CD-1, mouse, 10 min): 0.30 µM
- Measured concentration of PEA (analyte) (in vitro; CD-1, mouse, 20 min): 0.15 µM
- Measured concentration of PEA (analyte) (in vitro; CD-1, mouse, 30 min): 0.086 µM
- Measured concentration of PEA (analyte) (in vitro; CD-1, mouse, 60 min): 0 µM
- % Remaining of Initial (in vitro; CD-1, mouse, 0 h): 100%
- % Remaining of Initial (in vitro; CD-1, mouse, 10 min): <1.0%
- % Remaining of Initial (in vitro; CD-1, mouse, 20 min): <1.0%
- % Remaining of Initial (in vitro; CD-1, mouse, 0.5 h): <1.0%
- % Remaining of Initial (in vitro; CD-1, mouse, 1 h): <1.0%
- microsomal CLint at 1 μM (in vitro; CD-1, mouse): > 1380 µL/min/mg
- half-life at 1 μM (in vitro; CD-1, mouse, Half-life): < 1 min
- Bioavailability ([1]; po): 17.3%
- Dose-normalized AUC∞ of PEA ([1]; po): 11.2 kg·ng·h/mL/mg
SMILES: CCCCCCCCCCCCCCCC(=O)NCCOC(=O)CCC(=O)OC(CO)CO [Compound I-8]
